Source: US20070299029A1, “Hepatic stellate cell specific promoter and uses thereof” (Agency for Science, Technology and Research, priority 2005, published 2007)
Where two headings read alike, the source gives them in different places.

Key:
[1] = test system: T6/GFAP-lacZ cells; assay: X-gal stained images of T6/GFAP-lacZ cells (cell number); assay type: cell-based, rat; conditions: 24 hours, low serum (0.5% FBS) DMEM
Description: FIG. 15 depicts X-gal staining of T6/GFAP-lacZ cells. Incubation with A) DMSO vehicle control; B) 25 μM EGCG; and C) 40 μM genistein in a low serum DMEM for 24 hours. Images were captured after 60 min of X-gal staining;
(§1) A lacZ reporter assay kit for cell staining (InvivoGen, CA, USA) was used to detect the reporter gene activity in T6/GFAP-lacZ cells treated with EGCG or genistein. The staining results were documented with a digital camera (DP12) attached to an Olympus inverted bright field microscope (IX51) after development for 60 min. For quantification, the β-galactosidase activity in cell extracts was measured using a chemiluminescent assay kit (Roche, Mannheim, Germany) in a 96-well plate format, according to the manufacturer's instructions. Briefly, cells were washed twice with ice-cold 1×PBS (pH 7.4), lysed for 30 minutes at room temperature with the lysis buffer, and supernatant was collected for assays. Protein concentration was determined with a BCA protein assay kit (Pierce, Ill., USA). Specific β-galactosidase activity was obtained by normalizing against total cellular protein content.
EGCG is a major catechin from green tea leaves associated with a wide range of beneficial activities including anti-oxidation, anti-inflammation and anti-fibrosis, whereas genistein is a major flavonoid found abundantly in soy bean with anti-tumor and pro-apoptotic activities. […]

[2] = test system: endogenous rat GFAP mRNA; assay: real-time RT-PCR for endogenous rat GFAP mRNA in T6/GFAP-lacZ cells; assay type: cell-based
Description: (§2) Cells were initially seeded in 12-well plates in DMEM supplemented with 10% FBS and weaned to a low serum DMEM (0.5% FBS) at a confluence of 70-80% for 12 hours of adaptation. Cells were then incubated with different concentrations of compounds for various amounts of time before being assayed for β-galactosidase activity and GFAP mRNA. For compound attenuation studies, cells were treated with a pro-fibrotic cytokine (TGF-β1 or PDGF-BB) either sequentially or concurrently with a compound (EGCG or genistein). In the sequential scheme, cells were first treated with a cytokine for 1-3 days, then the cytokine-containing culture medium was replaced with a fresh medium containing a particular compound only for various times. Details of the cytokine/compound treatments can be found in the individual figure legends.
Total RNA was reverse-transcribed to cDNA using Taqman's reverse transcription reagent (Applied Biosystems, CA, USA). A total of 200 ng of RNA in 7.7 μl of nuclease-free water was added to 2 μl 10× reverse transcriptase buffer, 4.4 μl 25 mM magnesium chloride, 4 μl deoxyNTP mixtures, 1 μl random hexamers, 0.4 μl RNase inhibitor and 0.5 μl reverse transcriptase (50 U/μl) in a final reaction volume of 20 μl. The reaction was performed for 10 min at 25° C. (annealing), 30 min at 48° C. (cDNA synthesis) and 5 min at 95° C. (enzyme denaturation).
Real-time quantitative PCR was carried out with an ABI 7500 Fast Real-time PCR System (Applied Biosystems, CA, USA). Two micro liters of sample cDNA were used in each PCR reaction, with β-actin gene as a reference for normalization. The primers and probes for rat β-actin and GFAP were ordered from Taqman's assay-on-demand database. The PCR reaction was performed under a default profile consisting of 95° C. for 20 seconds (enzyme denaturation) and 40 cycles of amplification (denaturation 3 seconds, annealing and extension 30 seconds). Some of the real-time RT-PCR reactions were separated on an agarose gel for visual confirmation of discrete products (data not shown).
Relative quantitation of the target mRNA was calculated using the comparative threshold cycle (CT) methods as described in the User Bulletin #2 (ABI Prism 7700 Sequence Detection System). CT indicates the fractional cycle number at which the amount of amplified target reaches a fixed threshold within the linear phase of gene amplification. ΔCT, which reflects the difference between CT target and CT β-actin, is inversely correlated to the abundance of mRNA transcripts in the samples. ACT for each sample was normalized against control experiment or calibrator and expressed as ΔΔCT. Relative quantitation is given by 2^−ΔΔCT to express the up-regulation or down-regulation of the target gene under the treatments compared to the control.

[3] = test system: GFAP-lacZ transgene; assay: chemiluminescent β-galactosidase activity assay of GFAP-lacZ transgene expression in T6/GFAP-lacZ cells; assay type: cell-based, rat
Description: as §2, §1

[4] = test system: T6/GFAP-lacZ cells; assay: tetrazolium-based proliferation assay of T6/GFAP-lacZ cells; assay type: cell-based, rat; conditions: 48 hours, low serum (0.5% FBS) medium, read-out: IC50 of proliferation inhibition
Description: FIG. 14 illustrates that EGCG and genistein suppressed proliferation of the T6/GFAP-lacZ cells. Cells were grown in full medium to 70-80% confluence in 96-well plates, followed by compound treatment of various concentrations (0-40 μM) in a low serum medium for 48 hours before assaying for proliferation. Signal was normalized against vehicle treatment (0 μM compound). Data was obtained from three independent experiments and presented as mean ±SE.
However our genistein IC50 value for the T6/GFAP-lacZ cells was three times lower than that for the T6 cells cultured in DMEM containing 10% FBS (Kang et al., (2001) supra). Our additional data also confirmed that no significant difference in IC50 value was observed between the T6 and the T6/GFAP-lacZ cells (data not shown).

[5] = Yang et al. (1998); cited from earlier work

Compound: O=c1c(-c2ccc(O)cc2)coc2cc(O)cc(O)c12 [genistein]
- proliferation inhibition (fewer cells than control) ([1]; 40 μM genistein): significant proliferation inhibition
- effect on endogenous GFAP mRNA ([2]; 10 μM genistein, time course 0-72 hours): less predictable, ranging from suppression at 24 hours to induction at 72 hours
- endogenous GFAP mRNA, % of the control ([2]; 20 μM genistein, 8 hours): 23%
- endogenous GFAP mRNA, % of the control ([2]; 20 μM genistein, 72 hours): 43%
- TGF-β1-induced GFAP transcription, % of the control ([2]; concurrent: 20 μM genistein and 1 ng/ml TGF-β1, 56 hours): 14%
- endogenous GFAP transcription, % of the PDGF-BB-alone control ([2]; concurrent: 20 μM genistein and 10 ng/ml PDGF, 48 hours): 6%
- reliable inhibitory concentration for GFAP mRNA ([2]; genistein dose experiment, 48 hours): higher than 10 μM
- TGF-β1-induced GFAP transcription, % of the control ([2]; sequential: 1 ng/ml TGF-β1 48 hours, then 20 μM genistein 8 hours): 26%
- endogenous GFAP transcription, % of the PDGF-BB-alone control ([2]; sequential: 10 ng/ml PDGF 24 hours, then 20 μM genistein 24 hours): 8.6%
- GFAP-lacZ transgene expression (β-galactosidase activity), % of the control ([3]; 40 μM genistein, 24 hours (largest suppression)): 65%
- PDGF-BB-induced GFAP-lacZ, % of PDGF-BB-alone control ([3]; concurrent: 40 μM genistein and 10 ng/ml PDGF-BB, 72 hours): 48%
- β-galactosidase activity, % of the TGF-β1-alone control ([3]; concurrent: 40 μM genistein and 10 ng/ml TGF-β1, 48 hours): 43%
- PDGF-BB-induced GFAP-lacZ, % of PDGF-BB-alone control ([3]; sequential: 10 ng/ml PDGF-BB 48 hours, then 40 μM genistein 24 hours): 79%
- suppressing effect on TGF-β1-induced β-galactosidase activity ([3]; sequential: 10 ng/ml TGF-β1 24 hours, then 40 μM genistein 24 hours): negligible
- IC50 ([4]; Rattus norvegicus): 25 µM

Compound: O=C(O[C@@H]1Cc2c(O)cc(O)cc2O[C@@H]1c1cc(O)c(O)c(O)c1)c1cc(O)c(O)c(O)c1 [EGCG, epigallocatechin gallate]
- proliferation inhibition (fewer cells than control) ([1]; 25 μM EGCG): significant proliferation inhibition
- PDGF-induced GFAP elevation, % of the endogenous control ([2]; 10 ng/ml PDGF, incubation with 10 μM of EGCG for two days): 8%
- GFAP transcription, % of the control level ([2]; 130 nM EGCG, 48 hours): 34%
- endogenous GFAP mRNA, % of the control ([2]; 10 μM EGCG, 24 hours (maximum suppression)): 39%
- GFAP transcription at increasing dosages ([2]; EGCG dosages above 130 nM up to 20 μM, 48 hours): no further suppression
- endogenous GFAP mRNA, % of TGF-β1-alone control ([2]; concurrent: 1 ng/ml TGF-β1 with 5 μM EGCG, 56 hours): 29%
- endogenous GFAP mRNA, % of TGF-β1-alone control ([2]; sequential: 1 ng/ml TGF-β1 48 hours, then 5 μM EGCG 8 hours): 45%
- PDGF-induced GFAP-lacZ elevation, % of the transgenic control ([3]; 10 ng/ml PDGF-BB, incubation with 10 μM of EGCG for two days): 60%
- GFAP-lacZ transgene expression (β-galactosidase activity), % of the control ([3]; 5 μM EGCG, 2 hours): 82%
- GFAP-lacZ transgene expression (β-galactosidase activity), % of the control ([3]; 20 μM EGCG, 2 hours): 55%
- GFAP-lacZ transgene expression (β-galactosidase activity), % of the control level ([3]; 20 μM EGCG, 4 hours): 73%
- inhibitory effect on GFAP-lacZ transgene expression ([3]; EGCG all dosages (up to 20 μM), 24 hours): completely abolished
- β-galactosidase activity, % of TGF-β1-alone control ([3]; concurrent: 10 ng/ml TGF-β1 with 20 μM EGCG 26 hours): 66%
- β-galactosidase activity, % of TGF-β1-alone control ([3]; sequential: 10 ng/ml TGF-β1 24 hours, then 20 μM EGCG 2 hours, not statistically significant): 87%
- IC50 [4]: 31 µM
- half-life in human plasma [5]: about 5 hours
